{"source": "patent US20220025334A1", "about": "“SYNTHETIC FOOD COMPOSITIONS” (Wild Type, Inc., priority 2018, published 2022)", "tested_on": "duck hepatocytes", "assay": "Induction of steatosis in cultured duck hepatocytes by fatty acid incubation", "assay_type": "cell-based", "note": "Entries after “also recorded” stand apart in the source; their conditions may differ."}
{"smiles": "CCCCC/C=C\\C/C=C\\CCCCCCCC(=O)O", "note": "[linoleic acid]", "values": [{"measurement": "dose response: linoleic acid concentration versus percentage of hepatocytes having steatosis", "setting": "0, 0.1, 0.25, 0.5, 1, 2 μM linoleic acid (FIG. 16B)", "value": "corresponding increase in the percentage of hepatocytes with steatosis"}, {"measurement": "induction of steatosis (accumulation of intracellular lipid-containing vesicles)", "setting": "2 μM linoleic acid vs untreated control, duck hepatocytes (FIG. 16A)", "value": "successful induction of steatosis; also recorded: successfully induced to undergo steatosis"}, {"measurement": "percentage of steatotic hepatocytes", "setting": "2 μM linoleic acid, duck hepatocytes (FIG. 16B)", "value": "above 85%"}]}
